# *1 amine or outer side, *2 acyl side, *3 side chain or, on linkers, in order; H or OH if unused. Where a SMILES comes first, the peptide text is derived from it. Bridges are numbered along the chain shown (N, C = ends). Where no end group is shown, it is not given here. [ ]: non-standard residue; d: D form. The star is where a group is joined. X1 = NC1=N[C@@H]([C@H](N[*:1])C(=O)[*:2])C[C@H](O)N1; ΔAla(Z-3-ureido) = NC(=O)N/C=C(\N)C(=O)O; β3hOrn = NCCC[C@H](N)CC(=O)*; Dap = NC[C@H](N)C(=O)O
# T1: human P2X4 receptor (Homo sapiens, UniProt Q99571)
# T1 construct: expressed in transfected cells; host or cells: HEK cells (hP2X4_HEK-FITR), expression induced with doxycyclin
# T1 sequence (Q99571 1-388): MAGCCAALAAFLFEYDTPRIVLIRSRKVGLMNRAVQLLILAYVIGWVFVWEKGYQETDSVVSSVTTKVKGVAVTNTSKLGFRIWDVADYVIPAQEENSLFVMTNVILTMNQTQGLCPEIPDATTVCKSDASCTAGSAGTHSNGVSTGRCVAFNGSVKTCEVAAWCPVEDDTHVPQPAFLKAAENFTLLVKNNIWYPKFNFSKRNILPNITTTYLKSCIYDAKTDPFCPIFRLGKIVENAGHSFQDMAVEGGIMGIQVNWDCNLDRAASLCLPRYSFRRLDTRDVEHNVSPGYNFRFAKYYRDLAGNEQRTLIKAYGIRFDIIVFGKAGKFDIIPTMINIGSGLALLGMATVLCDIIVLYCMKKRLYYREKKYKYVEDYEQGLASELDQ
# T2: Recombinant human P2X4 receptor (human, UniProt Q99571 1-388)
# T2 sequence (looked up): T1 sequence (Q99571 1-388)
# B1: LabA2_L14A (peptide)
# peptide: SDWSLWECCSTGSAFACC
# modifications: thioether (positions not given here); not fully specified (residues 1, 4, 10, 13, bridges); also: labionin residues as in LabA2: methylene bridges between alpha-C atoms, places not given here
# Experiments:
# A. namibiensis = test: Testing selection markers (antibiotic resistance) suitable for genetic manipulations of A. namibiensis; on Growth after 4 days: key: −: no growth; +: slight growth; ++: medium growth; +++: strong growth; on Growth after 7 days: key: −: no growth; +: slight growth; ++: medium growth; +++: strong growth; format: cell-based, Actinomadura namibiensis; settings: for Growth after 4 days / Growth after 7 days: A. namibiensis
# Method: An apramycin resistance gene was used as selectable marker for vectors used in this study because from all eight tested antibiotics A. namibiensis was […] to apramycin (50 μg/ml). Initially for establishing a way in which DNA can be introduced into A. namibiensis the typical cloning vectors for Streptomyces strains were used. Plasmid pUWLoriT which can replicate autonomously in Streptomyces and plasmid pSET152 which can integrate site-specifically at the bacteriophage ΦC31 attachment site (18) (7) were used. […] Although Actinomaduras and Streptomyces are related it is still possible that origin of replication (ori) for Streptomyces is not recognized by A. namibiensis (9). Description of similar difficulties can be found in the literature (17). This led to the use of vectors harboring replicons of Actinomadura strains: pSETermEΔHindIII_oriCLL4, pK18mobXylE_oripCLL4 and pCLL4_ori_apra. Also a non-replicating plasmid pK18mob2 with a fragment coding for the LabKC modifying enzyme was used for transformation of A. namibiensis.
# human P2X4 receptor = molecular target: T1, human P2X4 receptor; test: IC50 determination by patch clamp on hP2X4_HEK-FITR cell line (in vitro anti-pain assay); format: cell-based; settings: recombinant human P2X4 in HEK cells, 10 μM ATP, holding potential −60 mV, 0.3 to 90 μM
# Excerpt: Evaluation of anti-pain activity of labyrinthopeptin A2 and its structural analogs LabA2_L14A and LabA2 F15A in an in vitro assay (IC50 determination of LabA2, LabA2_L14A and LabA2_F15A on hP2X4_HEK-FITR-cell line) The use of labyrinthopeptin A2 and its derivatives, in particular LabA2_L14A and LabA2_F15A, as analgesics was investigated for neuropathic pain based on their inhibitory effects on P2X4 receptors (Nagata K et al., 2009).
# Recombinant human P2X4 receptor was expressed in HEK cells (hP2X4_HEK-FITR). hP2X4 expression was induced with doxycyclin 1 μg/ml for 24 h to 48 h. The patch clamp experiment has been performed under standard conditions using an axopatch-200B amplifier and pClamp v10 acquisition software (Axon Instruments Inc, Foster City, Calif., USA). Cells were continuously superfused with an external solution consisting of (in mM) 130 CsCl, 4 NaCl, 1 MgCl2, 1 CaCl2, 10 EGTA (free Ca^2+=6.7 nM) and 10 HEPES (pH 7.4 with CsOH). This was replaced with a […] external solution consisting of (in mM) 145 NaCl, 4 KCl, 2 CaCl2, 1 MgCl2 and 10 HEPES (pH 7.4 with NaOH). 250 ms application of 10 μM ATP (Sigma) every 10 sec was performed. […] Currents were measured at a holding potential of −60 mV.
# Results were calculated using Origin7.5 software (FIG. 27).
# [1] = molecular target: T2, Recombinant human P2X4 receptor; test: cell-based or functional assay
molecule,measurement,setting,value
CN[C@@H]1[C@@H](O[C@H]2O[C@H](CO)[C@@H](N)[C@H](O)[C@H]2O)OC2C[C@@H](N)[C@@H](O[C@H]3[C@H](O)[C@@H](O)[C@H](N)C[C@@H]3N)OC2[C@@H]1O (stereo partly shown) [Apramycin],sensitivity of A. namibiensis to antibiotic,A. namibiensis; 50 μg/ml,sensitive
same,Growth after 4 days,A. namibiensis; antibiotic conc. 25 μg/ml,−
same,Growth after 7 days,A. namibiensis; antibiotic conc. 25 μg/ml,+
same,Growth after 4 days,A. namibiensis; antibiotic conc. 50 μg/ml,−
same,Growth after 7 days,A. namibiensis; antibiotic conc. 50 μg/ml,−
NC[C@H]1O[C@H](O[C@H]2[C@H](O)[C@@H](O[C@H]3O[C@H](CO)[C@@H](O)[C@H](N)[C@H]3O)[C@H](N)C[C@@H]2N)[C@H](O)[C@@H](O)[C@@H]1O [Kanamycin],Growth after 4 days,A. namibiensis; antibiotic conc. 50 μg/ml,+++
same,Growth after 7 days,A. namibiensis; antibiotic conc. 50 μg/ml,+++
C[C@@H]1O[C@@H]1P(=O)(O)O [Phosphomycin],Growth after 4 days,A. namibiensis; antibiotic conc. 400 μg/ml,+++
same,Growth after 7 days,A. namibiensis; antibiotic conc. 400 μg/ml,+++
CN[C@@H]1[C@H](O)[C@H](NC)[C@H]2O[C@@]3(O)C(=O)C[C@@H](C)O[C@H]3O[C@@H]2[C@H]1O [Spectinomycin],Growth after 4 days,A. namibiensis; antibiotic conc. 100 μg/ml,+++
same,Growth after 7 days,A. namibiensis; antibiotic conc. 100 μg/ml,+++
[H]/N=C(/N)N[C@H]1[C@H](O)[C@@H](O)[C@H](O[C@@H]2O[C@@H](C)[C@](O)(C=O)[C@H]2O[C@@H]2O[C@@H](CO)[C@H](O)[C@@H](O)[C@@H]2NC)[C@@H](N/C(N)=N\[H])[C@@H]1O [Streptomycin],Growth after 4 days,A. namibiensis; antibiotic conc. 30 μg/ml,+
same,Growth after 7 days,A. namibiensis; antibiotic conc. 30 μg/ml,++
C=C(NC(=O)C(=C)NC(=O)c1csc(C2=N[C@@H]3c4csc(n4)[C@H]4NC(=O)c5csc(n5)[C@H]([C@](C)(O)[C@@H](C)O)NC(=O)[C@H]5CSC(=N5)/C(=C/C)NC(=O)[C@H]([C@@H](C)O)NC(=O)c5csc(n5)[C@]3(CC2)NC(=O)[C@H](C)NC(=O)C(=C)NC(=O)[C@H](C)NC(=O)[C@H]([C@@H](C)CC)N[C@@H]2C=Cc3c([C@H](C)O)cc(nc3[C@H]2O)C(=O)O[C@@H]4C)n1)C(N)=O [Thiostrepton],Growth after 4 days,A. namibiensis; antibiotic conc. 25 μg/ml,−
same,Growth after 7 days,A. namibiensis; antibiotic conc. 25 μg/ml,+
same,sensitivity of A. namibiensis to antibiotic,A. namibiensis; concentration not given,not sensitive
NCCC[C@H](N)CC(=O)N[C@H]1CNC(=O)[C@H]([C@H]2C[C@H](O)NC(N)=N2)NC(=O)/C(=C/NC(N)=O)NC(=O)[C@H](CO)NC(=O)[C@H](CO)NC1=O [Viomycin] (β3hOrn-[Dap]SS[ΔAla(Z-3-ureido)][X1]; lactam 1-C),Growth after 4 days,A. namibiensis; antibiotic conc. 30 μg/ml,+
same,Growth after 7 days,A. namibiensis; antibiotic conc. 30 μg/ml,+
Hydromycin,Growth after 4 days,A. namibiensis; antibiotic conc. 50 μg/ml,++
same,Growth after 7 days,A. namibiensis; antibiotic conc. 50 μg/ml,+++
LabA2_F15A (SDWSLWECCSTGSLAACC),IC50 (concentration of a substance that blocks 50% of channels),human P2X4 receptor,could not be determined
B1,"IC50 of inhibition of ATP-evoked currents (patch clamp, hP2X4_HEK-FITR cells)",[1],30 µM

# From patent publication US20150274787A1, “METHOD FOR RECOMBINANT PRODUCTION OF LABYRINTHOPEPTINS AND FUNCTIONAL DERIVATIVES THEREOF” (priority 2011, published 2015)
